Source: US20110245104A1, “Method for screening the sensitizing properties of chemical compounds” (priority 2010, published 2011)
“Also recorded” adds a separate entry of the source. Read-outs that look alike come from different tables or passages of the source.

What was measured:
[1] = tested on: anti-nuclear antibodies (ANA); assay: Anti-nuclear antibodies (ANA) in sera of mice topically exposed to haptens; format: in vivo; details: topical exposure
[2] = tested on: serum amyloid P component (SAP); assay: Serum amyloid P component (SAP) in sera of mice exposed to sensitizers; format: in vivo; details: sera of mice exposed to sensitizer
[3] = tested on: Normal human epidermal keratinocytes (HEKn); assay: Keratinocyte blebbing response, light microscopy (Example 1)
Experimental: Normal human epidermal keratinocytes (HEKn, Cascade Biologics, Portland, Oreg., USA) were maintained in phenol red-free EpiLife keratinocyte medium (Cascade Biologics) supplemented with 60 μM CaCl2, the antibiotics gentamicin/amphotericin and 1% (v/v) human keratinocyte growth supplement (HKGS; Cascade Biologics). Alternatively, Medium 154 containing 200 μM CaCl2 supplemented with HKGS (1% (v/v), without antibiotics is used. Cells were grown at 37° C. in a humidified 5% CO2 incubator. Final concentrations of the components in the supplemented medium were: bovine pituitary extract, 0.2% v/v; bovine insulin, […]; hydrocortisone, […]; bovine transferrin, […]; human epidermal growth factor, 0.2 ng/mL; optional: gentamicin, 10 μg/mL and amphotericin B, 0.25 μg/mL. All reagents were obtained from Cascade Biologics, Portland, Oreg., USA. The keratinocytes were used for experiments in the fifth or sixth passage.
HEKn cells in passage 6 were split and resuspended to 18500 cells/ml in medium 154 (Cascade Biologics) supplemented with 1% (v/v) human keratinocyte growth supplement (HKGS; Cascade Biologics, no antibiotics added). Cell suspension (0.5 ml) was added to each well in a 24 well plate (Nunc Multidishes Nunclon, Sigma Aldrich, Stockholm, Sweden) and incubated at 37° C., 5% CO2. The medium was replaced every second day by fresh 154 medium supplemented with HKGS (no antibiotics added) until cells had grown confluent.
The compounds to be tested (for example: mBBr, SDS, CDNB, nonanoic acid, HCA, oxazolone were purchased from Sigma Aldrich, qBBr, dBBr, glyoxal, and formaldehyde were obtained from Merck-Schuchardt, Darmstadt, Germany) were diluted in DMSO (Sigma Aldrich, Stockholm, Sweden) to final concentrations of 50 mM, 5 mM and 0.5 mM. These stock solutions were prepared fresh each time the experiment was performed. Alternatively, the mixture, solution, formulation, etc. can be used after dilution/dissolving in DMSO (to test the combined effects of the compounds in that particular preparation).
1) Cell preparation just prior to starting the experiment: the medium in the cell culture plate was replaced by 250 μl fresh Medium 154 (Cascade Biologics) supplemented with HKGS (1% (v/v) human keratinocyte growth supplement (HKGS; Cascade Biologics)) and the cells are kept at 37° C., 5% CO2.
2) Preparation of test compound in medium: 245 μl Medium 154 was added to 0.5 ml microtubes and preheated to 37° C. (waterbath). 5 μl of stock solution of compound was added to the microtubes containing preheated medium. These solutions were then added immediately to the cells in the 24-well plate.
3) The solutions in the microtubes (i.e. 250 μl medium+test compound) were added to each plate. The final concentration of each compound in the test was thus 0.5 mM, 0.05 mM, and 0.005 mM. The plate containing cells and test compounds was incubated for 24 hours at 37° C., 5% CO2.
4A) Each well was examined with a light microscope to determine the blebbing response (a Nikon TE300 inverted microscope) coupled to a digital camera.

[4] = tested on: K5 and K14 in blebs from human keratinocytes; assay: Keratin content of blebs released from keratinocytes (Western blot); format: cell-based; details: blebs from hapten-treated keratinocytes
Experimental: The quantification of the blebbing response was also made by observing: the amount of released protein (e.g. K5 and K14) through SDS-PAGE and western blots. Blebs were collected and lysed as described in example 4. SDS-PAGE: The samples were diluted (Blebs: 46 μg, 30 μl for blotting and 29.2 μg, 40 μl for SDS-PAGE. K14 and K5: 0.2 μg, 5 μl) with XT Sample Buffer 4X (BioRad, Hercules, Calif., USA) and milli-Q water. 1 μl DTT (2M) was added to each sample followed by heating at 96° C. for 2 minutes before application on the gel. Electrophoresis program: 200V, 400 mA, 50 W, 50 min. MOPS Running Buffer. The gels were fixed, scanned for fluorescence (excitation 480 nm, emission 530 nm) and coomassie stained (Bio-Safe™ Coomassie, BioRad, Hercules, Calif., USA). The gels are then used for quantitative measurement of proteins. Western Blot: Unfixed gels were blotted onto polyvinyldifluoride membranes (PVDF Ready-gel Blotting Sandwiches, 7×8.5 cm, BioRad, Hercules, Calif., USA). Blotting program: 70 V, 400 mA, 50 W, 30 min. Transfer buffer. Novex XCell II™ Blot Module (E19051, Novex, San Diego, Calif., USA). […]
The blebs in the supernatant was lysed with 4× freeze-thaw cycles using ethanol, dry ice and a 37° C. water bath. […] Total protein concentration was determined with Pierce BCA Protein Assay. […]

human skin excerpts = assay: Labeling of human skin excerpts by caged haptens
Description: The first step is that the molecules come into contact with the skin (the stratum corneum). Many of the reactive molecules react in the stratum corneum, something that can be seen in experiments with human skin excerpts and the caged (mBBr and dBBr) haptens. However, a significant proportion of the molecules penetrate further down to the suprabasal layers of the epidermis but also the follicular pathway is of importance for bringing xenobiotics into the skin. It is likely that the penetration is due both to the acidic pH of the stratum corneum (the molecules react more slowly when the pH is low), but also because many of the available groups have reacted. In the suprabasal layers, the haptens have a hard time penetrating the cells, as the cornification of the cells creates a thick, relatively impermeable envelope around the suprabasal cells. Consequently, the haptens penetrate down to the basal layer. Here, the cell membrane is much thinner and more fluidic and the molecules can thus enter the basal cells.

cysteine 54 (C54) of K5 = target: T1, cysteine 54 (C54) of K5 (Homo sapiens, UniProt P13647); assay: Haptenation site by LTQ-FT-ICR mass spectrometry; details: full-thickness human skin and living human keratinocytes
T1 construct: endogenous in cells; host or cells: intact full-thickness human skin; living (primary) human keratinocytes
T1 sequence (P13647 1-590): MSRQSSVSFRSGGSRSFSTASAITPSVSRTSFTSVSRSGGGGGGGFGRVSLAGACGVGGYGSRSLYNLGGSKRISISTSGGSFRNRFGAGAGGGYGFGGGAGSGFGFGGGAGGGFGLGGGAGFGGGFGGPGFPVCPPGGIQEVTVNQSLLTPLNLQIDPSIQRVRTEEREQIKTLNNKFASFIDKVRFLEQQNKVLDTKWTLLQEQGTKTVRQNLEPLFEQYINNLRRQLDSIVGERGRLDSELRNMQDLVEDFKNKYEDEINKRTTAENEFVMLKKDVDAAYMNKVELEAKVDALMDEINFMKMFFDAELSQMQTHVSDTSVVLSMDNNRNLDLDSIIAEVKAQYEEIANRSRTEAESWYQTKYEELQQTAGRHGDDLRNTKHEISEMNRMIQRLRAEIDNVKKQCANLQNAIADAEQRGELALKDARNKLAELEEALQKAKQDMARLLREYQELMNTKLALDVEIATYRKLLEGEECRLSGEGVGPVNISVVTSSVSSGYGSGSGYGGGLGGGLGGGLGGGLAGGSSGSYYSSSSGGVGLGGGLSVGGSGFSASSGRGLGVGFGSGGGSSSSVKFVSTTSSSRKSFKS
T1 sequence (P02533 1-472 partner): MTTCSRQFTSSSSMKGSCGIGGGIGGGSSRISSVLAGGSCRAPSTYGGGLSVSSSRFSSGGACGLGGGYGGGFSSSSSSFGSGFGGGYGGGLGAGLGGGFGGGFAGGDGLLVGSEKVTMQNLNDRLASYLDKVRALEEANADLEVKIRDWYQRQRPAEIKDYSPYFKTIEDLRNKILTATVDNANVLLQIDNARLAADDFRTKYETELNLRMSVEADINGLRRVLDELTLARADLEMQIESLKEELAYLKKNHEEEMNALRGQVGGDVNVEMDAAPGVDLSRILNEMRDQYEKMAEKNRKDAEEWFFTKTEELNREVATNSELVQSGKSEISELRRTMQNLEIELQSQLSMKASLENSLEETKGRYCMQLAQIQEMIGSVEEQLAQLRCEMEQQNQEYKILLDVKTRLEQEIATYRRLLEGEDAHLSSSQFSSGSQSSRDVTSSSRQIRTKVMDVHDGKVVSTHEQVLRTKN
Description: The second step is that the molecules enter the basal cells. Since the extracellular environment is oxidizing, extracellular cysteines are mostly oxidized to disulfides. However, it is in the reduced, intracellular environment that the haptens find reduced thiols to react with. Once inside the cells the compounds will react with available (i.e. not sterically hindered), reduced cysteines (thiol groups). […] Furthermore, it was identified that one of the cysteines that the haptens react with is cysteine 54 (C54) of K5. […] One of the reasons for intense reaction at C54 is presumably its high effective concentration just inside the cell membrane. It is vital in the life of an organism to fail-safe its epithelial integrity, and the bundling of the KIFs ensures a high effective local concentration of the peptide stretch containing C54, ensuring strong welding of the cell to its surroundings. Amino acids nearby in the primary sequence are consequently also located within physical reach of an incoming compound in similarly high effective concentrations. Looking at blebbing brought on by amine- and arginine-reactive compounds from this angle, the residues K71 and R72 are the closest candidates in the primary sequence.

[5] = HEKn cells, tested at 0.5, 0.05 and 0.005 mM
[6] = HEKn cells, time 24 h and concentration 0.5 mM, visual inspection, blind
[7] = compound added to human keratinocytes

With `O=[N+]([O-])c1ccc(Cl)c([N+](=O)[O-])c1` [CDNB, 1-chloro 2,4 dinitrobenzene] the “Level of anti-nuclear antibodies (ANA) in sera” value (from here on “Level of anti-nuclear antibodies”) [1] was “increased levels”, the “Level of serum amyloid P component (SAP)” value [2] was “increased levels” and the “Concentration at which the cells produced blebs after 24 hours” value [3, 5] was 500 µM. The Time to blebbing ([3]; HEKn cells, inspected at 1.5, 2.5 and 24 h, tested at 0.5, 0.05 and 0.005 mM) was 24 h, the Amount of blebs [3, 6] was “++” and the “Blebbing response of human keratinocytes (induced or not)” value (from here on “Blebbing response … (induced or not)”) [3, 7] was “provoke a blebbing response”. The “Sensitizing potential, collective analysis of the three blebbing endpoints” value (shortened to “Sensitizing potential”) ([3]; time to blebbing, concentration, amount of blebs combined) was “strong sensitizers”.

In the case of `CCCCCCC(C=O)=Cc1ccccc1` [HCA, α-hexyl cinnamic aldehyde], the “Blebbing response … (induced or not)” value [3] is reported as “did not induce blebbing at the tested concentrations”.

`C=O` [formaldehyde] was tested, and the “Blebbing response … (induced or not)” value [3] was “provoke a blebbing response”.

With `O=CC=O` [glyoxal] the “Level of anti-nuclear antibodies” value [1] was “increased levels”, the “Level of serum amyloid P component (SAP)” value [2] was “increased levels” and the “Sensitizing potential” value [3] was “moderate sensitizer”. For the same compound, the “Concentration at which the cells produced blebs after 24 hours” value [3, 5] was 500 µM, the Amount of blebs [3, 6] was “+” and the “Blebbing response … (induced or not)” value [3, 7] was “provoke a blebbing response”. For the same compound, the “Keratins (K5 and K14) in blebs” value [4] was “contain K5 and K14; also recorded: contain keratins”.

`Cc1c(C)n2c(CBr)c(C)c(=O)n2c1=O` [mBBr, monobromobimane] was tested, and the “Level of anti-nuclear antibodies” value [1] was “increased levels”, the “Labeling of cells in the basal layer” value (human skin excerpts) was “cells in the basal layer are labeled” and the “Covalent modification of C54 of K5” value (cysteine 54 (C54) of K5) was “modify C54 of K5; also recorded: modifies C54 of K5”.

With `CCO/C=C1\N=C(c2ccccc2)OC1=O` [oxazolone] the “Level of anti-nuclear antibodies” value [1] was “increased levels”, the Amount of blebs [3] was “+++” and the “Blebbing response … (induced or not)” value [3] was “provoke a blebbing response”. The “Sensitizing potential” value [3] was “extreme sensitizer”, the Time to blebbing [3] was 1.5 h and the “Keratins (K5 and K14) in blebs” value [4] was “contain K5 and K14; also recorded: contain keratins”.
